One assay addresses T1, BAZ2B (h) bromodomain (Homo sapiens, UniProt Q9UIF8).
T1 construct: Bromodomain
T1 sequence (Q9UIF8 2060-2164 limits assumed): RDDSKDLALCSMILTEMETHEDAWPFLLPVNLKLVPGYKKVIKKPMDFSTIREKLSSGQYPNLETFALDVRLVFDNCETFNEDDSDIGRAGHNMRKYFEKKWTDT
Put plainly: Epigenetic binding assay, Bromodomain. Particulars: read-out: % Inhibition of Control Specific Binding.

Another assay relates to KG-1 leukemia cell line. Put plainly: OncoPanel cell proliferation assay (10-day). Format: cell-based. Particulars: Homo sapiens; for pEC50: read-out: Cell Count EC50; for pIC50: read-out: Cell Count IC50.
In another assay the test system is Angiotensin, AT1/ACE. Put plainly: Angiotensin, AT1/ACE, guinea pig ileum (isotonic). Set-up: species or system Dunkin Hartley Guinea pig. The settings on record: 10 μM; assay year 2015. Here is the method: (§1) The in vitro pharmacological studies were conducted by Eurofins PanLab (Taiwan) using the parameters shown in Table 13 with respect to appropriate literature references.

The target of another assay is T2, CBX1 (h) chromodomain (Homo sapiens, UniProt P83916).
T2 construct: Recognition and specificity determinants of the human cbx chromodomains; Eurofins CEREP (France), contract laboratory
T2 sequence (P83916 21-79 limits assumed): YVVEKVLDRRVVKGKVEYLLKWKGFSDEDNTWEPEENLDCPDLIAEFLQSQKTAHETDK
Put plainly: Epigenetic binding assay, Chromodomain. The settings on record: read-out: % Inhibition of Control Specific Binding.

The target of a further assay is T3, Chemokine CX3CR1 (Homo sapiens, UniProt P49238).
T3 construct: expressed in transfected cells; host or cells: Chem-1 cells
T3 sequence (P49238 1-355): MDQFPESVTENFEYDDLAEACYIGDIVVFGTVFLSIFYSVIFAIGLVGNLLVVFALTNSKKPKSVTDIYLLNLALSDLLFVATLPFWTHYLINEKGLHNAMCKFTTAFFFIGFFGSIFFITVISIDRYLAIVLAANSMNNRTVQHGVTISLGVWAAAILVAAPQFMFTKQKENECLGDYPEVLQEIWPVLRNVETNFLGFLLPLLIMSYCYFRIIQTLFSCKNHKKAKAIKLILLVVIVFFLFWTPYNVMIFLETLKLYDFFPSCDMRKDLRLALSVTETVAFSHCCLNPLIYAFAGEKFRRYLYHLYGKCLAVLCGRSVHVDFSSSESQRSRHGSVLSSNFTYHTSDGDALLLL
Put plainly: Chemokine CX3CR1 radio ligand binding. Particulars: assay year 2015. The method, then:
as §1

In a further assay the target is JARID1A (h) (Homo sapiens, UniProt P29375). Put plainly: Epigenetic enzyme assay, Demethylases (KDMs). The settings on record: for inhibition at 10 µM: read-out: % Inhibition of Control Values. Format: biochemical.
Sequence of JARID1A (h) (P29375 whole entry): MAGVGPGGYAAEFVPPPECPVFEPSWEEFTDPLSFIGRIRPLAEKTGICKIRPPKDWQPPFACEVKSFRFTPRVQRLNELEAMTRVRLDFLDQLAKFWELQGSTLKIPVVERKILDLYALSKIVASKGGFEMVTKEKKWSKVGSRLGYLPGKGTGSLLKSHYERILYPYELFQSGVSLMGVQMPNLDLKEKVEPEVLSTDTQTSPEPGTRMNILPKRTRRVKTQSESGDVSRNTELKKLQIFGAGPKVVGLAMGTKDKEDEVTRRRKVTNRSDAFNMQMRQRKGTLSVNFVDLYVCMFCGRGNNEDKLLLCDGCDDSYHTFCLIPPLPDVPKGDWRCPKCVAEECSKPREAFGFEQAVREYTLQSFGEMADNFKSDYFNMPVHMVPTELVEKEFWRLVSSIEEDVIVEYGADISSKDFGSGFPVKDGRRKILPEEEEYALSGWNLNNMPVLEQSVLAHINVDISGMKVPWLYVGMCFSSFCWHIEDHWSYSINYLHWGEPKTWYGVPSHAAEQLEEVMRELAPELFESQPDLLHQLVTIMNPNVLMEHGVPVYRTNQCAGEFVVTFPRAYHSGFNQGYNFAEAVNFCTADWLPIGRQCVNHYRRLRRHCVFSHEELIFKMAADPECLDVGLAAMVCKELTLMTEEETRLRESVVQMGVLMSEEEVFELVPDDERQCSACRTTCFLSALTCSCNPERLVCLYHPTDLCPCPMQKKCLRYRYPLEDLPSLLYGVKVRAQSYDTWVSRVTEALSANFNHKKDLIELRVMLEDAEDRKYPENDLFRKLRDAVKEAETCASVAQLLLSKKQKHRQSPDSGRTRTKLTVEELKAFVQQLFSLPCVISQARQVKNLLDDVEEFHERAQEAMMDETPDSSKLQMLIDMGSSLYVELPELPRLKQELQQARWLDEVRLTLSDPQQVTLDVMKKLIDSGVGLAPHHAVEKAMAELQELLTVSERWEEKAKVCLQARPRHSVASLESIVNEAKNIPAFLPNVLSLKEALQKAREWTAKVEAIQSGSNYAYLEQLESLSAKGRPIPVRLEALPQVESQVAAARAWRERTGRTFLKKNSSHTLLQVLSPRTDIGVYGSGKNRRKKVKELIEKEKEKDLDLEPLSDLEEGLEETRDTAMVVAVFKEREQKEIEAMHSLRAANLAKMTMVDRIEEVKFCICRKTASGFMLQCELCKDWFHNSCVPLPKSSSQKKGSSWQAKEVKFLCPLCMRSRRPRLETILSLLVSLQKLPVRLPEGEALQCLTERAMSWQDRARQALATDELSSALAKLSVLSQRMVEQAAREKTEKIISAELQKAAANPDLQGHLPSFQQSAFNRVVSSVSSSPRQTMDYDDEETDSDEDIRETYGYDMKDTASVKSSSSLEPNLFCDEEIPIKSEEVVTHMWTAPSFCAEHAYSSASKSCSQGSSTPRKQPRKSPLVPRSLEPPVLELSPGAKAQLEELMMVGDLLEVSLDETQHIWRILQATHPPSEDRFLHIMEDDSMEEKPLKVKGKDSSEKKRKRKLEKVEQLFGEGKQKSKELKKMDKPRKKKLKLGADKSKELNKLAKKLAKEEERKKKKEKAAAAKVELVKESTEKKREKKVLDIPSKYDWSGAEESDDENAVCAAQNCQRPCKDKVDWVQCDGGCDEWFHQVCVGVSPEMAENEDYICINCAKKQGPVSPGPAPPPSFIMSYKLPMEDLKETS
The target in a further assay is T4, Monoamine Oxidase MAO-B (Homo sapiens, UniProt P27338).
T4 construct: host or cells: Insect Hi5 cells
T4 sequence (P27338 1-520): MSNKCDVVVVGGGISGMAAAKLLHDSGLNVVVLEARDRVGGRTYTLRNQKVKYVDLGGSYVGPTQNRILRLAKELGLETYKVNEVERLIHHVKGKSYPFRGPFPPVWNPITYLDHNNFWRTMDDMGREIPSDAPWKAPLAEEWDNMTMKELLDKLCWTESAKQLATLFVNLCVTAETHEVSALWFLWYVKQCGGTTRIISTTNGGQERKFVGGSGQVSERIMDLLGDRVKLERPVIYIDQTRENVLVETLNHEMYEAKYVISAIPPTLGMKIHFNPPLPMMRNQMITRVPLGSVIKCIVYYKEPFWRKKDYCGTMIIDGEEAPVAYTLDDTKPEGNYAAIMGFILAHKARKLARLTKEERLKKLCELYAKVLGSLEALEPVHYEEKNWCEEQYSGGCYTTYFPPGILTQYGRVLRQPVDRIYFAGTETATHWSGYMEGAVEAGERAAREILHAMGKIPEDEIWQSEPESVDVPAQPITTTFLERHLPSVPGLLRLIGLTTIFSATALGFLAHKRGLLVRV
Put plainly: Monoamine Oxidase MAO-B. Format: biochemical. The settings on record: for remaining activity at 10 µM: assay year 2015, read-out: % Control Response. The method, then: as §1

For another assay, the target named is T5, PRMT4 (h) (Homo sapiens, UniProt Q86X55).
T5 sequence (Q86X55 1-608): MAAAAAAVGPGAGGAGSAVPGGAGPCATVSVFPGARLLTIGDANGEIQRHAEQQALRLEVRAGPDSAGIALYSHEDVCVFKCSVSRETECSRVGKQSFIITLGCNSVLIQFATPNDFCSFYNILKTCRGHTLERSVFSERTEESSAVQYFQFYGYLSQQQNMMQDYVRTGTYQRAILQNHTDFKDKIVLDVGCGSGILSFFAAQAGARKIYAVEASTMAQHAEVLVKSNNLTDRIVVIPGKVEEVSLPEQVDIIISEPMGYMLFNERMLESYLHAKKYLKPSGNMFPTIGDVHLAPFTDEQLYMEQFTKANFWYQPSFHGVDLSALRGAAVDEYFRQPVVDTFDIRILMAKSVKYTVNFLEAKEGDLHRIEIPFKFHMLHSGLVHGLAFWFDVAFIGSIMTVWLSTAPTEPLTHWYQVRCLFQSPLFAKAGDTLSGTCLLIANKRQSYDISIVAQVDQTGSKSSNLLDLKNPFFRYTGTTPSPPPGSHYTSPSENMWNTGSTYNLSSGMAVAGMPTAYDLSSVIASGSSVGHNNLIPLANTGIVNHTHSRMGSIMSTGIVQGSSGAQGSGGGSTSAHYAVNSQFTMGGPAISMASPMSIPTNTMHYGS
Put plainly: Epigenetic enzyme assay, Methyltransferases (MTs). Format: biochemical. Particulars: for inhibition at 10 µM: read-out: % Inhibition of Control Values; for pIC50: Table 11, inhibition/concentration-response curve.

For the next assay, the target named is T6, PRMT7 (h) (Homo sapiens, UniProt Q9NVM4).
T6 sequence (Q9NVM4 1-692): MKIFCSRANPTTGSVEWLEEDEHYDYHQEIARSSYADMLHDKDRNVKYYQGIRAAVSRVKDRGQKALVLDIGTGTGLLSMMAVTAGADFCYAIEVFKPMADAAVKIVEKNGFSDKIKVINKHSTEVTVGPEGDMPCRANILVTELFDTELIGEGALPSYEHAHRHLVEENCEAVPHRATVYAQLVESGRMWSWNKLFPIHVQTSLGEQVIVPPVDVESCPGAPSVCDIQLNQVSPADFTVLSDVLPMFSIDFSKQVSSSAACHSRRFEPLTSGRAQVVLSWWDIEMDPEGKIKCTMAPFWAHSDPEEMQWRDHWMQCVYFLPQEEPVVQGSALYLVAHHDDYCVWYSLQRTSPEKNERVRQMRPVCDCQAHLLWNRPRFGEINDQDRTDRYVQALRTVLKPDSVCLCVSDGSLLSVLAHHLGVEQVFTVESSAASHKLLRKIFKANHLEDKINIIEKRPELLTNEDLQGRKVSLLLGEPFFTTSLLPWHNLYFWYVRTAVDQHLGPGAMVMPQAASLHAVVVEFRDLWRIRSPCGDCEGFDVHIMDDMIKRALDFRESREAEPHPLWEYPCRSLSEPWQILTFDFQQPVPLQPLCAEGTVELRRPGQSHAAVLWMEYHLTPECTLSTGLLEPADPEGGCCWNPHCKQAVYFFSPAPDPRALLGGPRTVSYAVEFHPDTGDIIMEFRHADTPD
Put plainly: Epigenetic enzyme assay, Methyltransferases (MTs). Format: biochemical. Particulars: read-out: % Inhibition of Control Values.

[1] abbreviates: KG-1, Leukemia, read-out: Cell Count GI50.

pEC50, pIC50: −log10 of the molar value. Like-named read-outs stand apart in the source and are kept apart here.

What is called inhibition is the drop in the measured response relative to a control, in per cent. As a reminder, the pEC50 is −log10 of the EC50, conventionally taken in molar units. A word on the GI50: it is the concentration at which growth is held to half of that of the control. The pIC50 is the negative decadic logarithm of the IC50, by convention in mol/L.

Consider `CC(C)=CCC[C@@H]1C(O)Oc2c(C)cc(O)c3c2[C@H]1CC[C@H]3C` (stereo partly shown) [Compound 2, 5,18-epoxyserrulat-14-en-8,18-diol], for which the inhibition at 10 µM at BAZ2B (h) bromodomain is 23%; at CBX1 (h) chromodomain, 0%; at JARID1A (h) (10 μM), -9%; at PRMT4 (h), 84%; at PRMT7 (h), 0%. In addition, in the assay on KG-1 leukemia cell line (KG-1, Leukemia), the pEC50 was 4.95. The 50% growth inhibitory concentration (GI50) in the assay with KG-1 leukemia cell line (setting [1]) worked out at 11.9 µM. Moreover, the pIC50 was 4.92 with KG-1 leukemia cell line (KG-1, Leukemia) and 5.27 on PRMT4 (h). In the assay on Angiotensin, AT1/ACE, the “% Control Response, Agonist” value is 0%. In the assay with Angiotensin, AT1/ACE, the “% Control Response, Antagonist” value is 10%. The percent of control response at 10 µM on Chemokine CX3CR1 was found to be 5%. Moreover, the remaining activity at 10 µM on Monoamine Oxidase MAO-B turned out to be 39%.
As to `CC(C)=CCC[C@@H]1COc2c(C)cc(O)c3c2[C@H]1CC[C@H]3C` [Compound 3, 5,18-epoxy-8-hydroxyserrulat-14-ene], the inhibition at 10 µM at BAZ2B (h) bromodomain was 21%; at CBX1 (h) chromodomain it was -1%; on JARID1A (h) (10 μM) it was 3%; at PRMT4 (h) it was 77%; at PRMT7 (h), -36%. Besides, in the assay on Angiotensin, AT1/ACE, the “% Control Response, Agonist” value was found to be 0%. In the assay with Angiotensin, AT1/ACE, the “% Control Response, Antagonist” value came out at 17%. Moreover, the percent of control response at 10 µM at Chemokine CX3CR1 worked out at 7%. In addition, the remaining activity at 10 µM at Monoamine Oxidase MAO-B was 18%.
Turning to `CC(C)=CCC[C@H](CO)[C@@H]1CC[C@@H](C)c2c1cc(C)c(O)c2O` [Compound 1, 7,8,18-trihydroxyserrulat-14-ene], the inhibition at 10 µM at BAZ2B (h) bromodomain is 58%; at CBX1 (h) chromodomain it was 15%; at JARID1A (h) (10 μM), 64%; at PRMT4 (h), 90%; at PRMT7 (h) it was -2%. In the assay on KG-1 leukemia cell line (KG-1, Leukemia), the pEC50 was 6.92. Moreover, the GI50 with KG-1 leukemia cell line (setting [1]) and in the assay on KG-1 leukemia cell line (read-out: GI50) was 0.11 µM each time. Further, the pIC50 in the assay with KG-1 leukemia cell line (KG-1, Leukemia) was 6.92; at JARID1A (h) (Table 11, inhibition/concentration-response curve, read-out: IC50), 5.02; at PRMT4 (h), 5.33. In addition, in the assay with Angiotensin, AT1/ACE, the “% Control Response, Agonist” value is 0%. Moreover, in the assay with Angiotensin, AT1/ACE, the “% Control Response, Antagonist” value is reported as 34%. Besides, at Chemokine CX3CR1, the percent of control response at 10 µM was -1%. Moreover, the “% Inhibition of Control Values” on JARID1A (h) (10 μM) is listed as “significant inhibitory activity”. At Monoamine Oxidase MAO-B (10 μM, assay year 2015), the “% Control Response” value is “potent inhibitor”. The remaining activity at 10 µM at Monoamine Oxidase MAO-B was 75%.
As for `CC(C)=CCC[C@H](C)[C@@H]1CC[C@@H](C)c2c1cc(C)c(O)c2O` [Compound 4, 7,8-dihydroxyserrulat-14-ene], in the assay with KG-1 leukemia cell line (KG-1, Leukemia), the pEC50 is 4.88 and the pIC50 was 4.88. Further, the GI50 in the assay with KG-1 leukemia cell line (setting [1]) was found to be 13.1 µM. The molecule also gave a pIC50 at PRMT4 (h) of 5.33.

The record behind these values is patent US11331299B2, “Medicinal use of serrulatane diterpenes” (The University of Sydney, priority 2016, dated 2022).
